# Measurements from patent US20090035394A1, “USE OF DNA-PK INHIBITION TO SENSITISE ATM DEFICIENT CANCERS TO DNA-DAMAGING CANCER THERAPIES” (priority 2005, published 2009).
# Key:
# pEBS7 (ATM-null) cells = assay: Chemopotentiation, sulforhodamine B growth assay in 96 well plates; format: cell-based, human; details: for % survival / Avg (absorbance at 564 nm): no inhibitor, pEBS7; for PF50 (potentiation factor at 50% cell kill): damaging agent without / with KU-0060648 (0.5 μM), pEBS7 (ATM-null)
# Method: (§1) The A-T fibroblast AT221JE-T cells (pEBS7, herein referred to as ATM-null cells) and the trans-complemented ATM+/+ (pEBS7-YZ5, herein referred to as ATM-competent cells) were grown in DMEM+20% FBS PSG and 100 ug/ml hygromycin. These cells are immortalised fibroblasts from an A-T patient which were transfected with pEBS7-YZ5 vector coding for full length ATM and the hygromycin resistance marker or pEBS7 vector, coding for the hygromycin resistance marker only. (Ziv Y et al (1997) Oncogene 15, 159-67)
# (§2) Following a 4-hour incubation to allow cell adherence, 5 μl DNA-PKcS inhibitor KU-0060648 (final concentration 0.5 μM) or DMSO/PBS equivalent was added. After a further 1 hour incubation, 5 μl of chemotherapeutic drug was added per well (see table 1). Drugs were removed after 16 hours and 150 μl fresh medium added per well. After 24h, one plate for each cell line was fixed and stained to account for background differences between the lines. Five days after seeding, the medium was aspirated from the wells of the remaining assay plates and 100 μl ice cold 10% TCA added for 30 minutes at 4° C. The wells were then washed four times with tap water and 50 μl 0.4% sulforhodamine B in 1% acetic acid added per well. After 15 minutes incubation at room temperature, excess stain was washed from the wells with 1% acetic acid. 100 μl […] pH6.8 was then added per well, the plates shaken to resuspend the stain and the absorbance at 564 nm determined.
# [1] = tested on: pEBS7-YZ5 (ATM-competent, ATM+/+) cells; assay: as above; format: cell-based, human; details: for % survival / Avg (absorbance at 564 nm): no inhibitor, pEBS7-YZ; for PF50 (potentiation factor at 50% cell kill): damaging agent without / with KU-0060648 (0.5 μM), pEBS7-YZ (ATM-competent)
# Method: as §1, §2
# [2] = Con: etoposide 0.01 (μg/ml per Table 1)
# [3] = Con: etoposide 0.025 (μg/ml per Table 1)
# [4] = Con: etoposide 0.05 (μg/ml per Table 1)
# [5] = Con: etoposide 0.075 (μg/ml per Table 1)
# [6] = Con: etoposide 0.1 (μg/ml per Table 1)
# [7] = Con: etoposide 0.25 (μg/ml per Table 1)
# [8] = Con: etoposide 0.5 (μg/ml per Table 1)
# [9] = Con: etoposide 0.75 (μg/ml per Table 1)
# [10] = Con: etoposide 1 (μg/ml per Table 1)
# [11] = Con: etoposide 2.5 (μg/ml per Table 1)
# [12] = Con: etoposide 5 (μg/ml per Table 1)
# [13] = Con: doxorubicin 0.01 (unit not given)
# [14] = Con: doxorubicin 0.025 (unit not given)
# [15] = Con: doxorubicin 0.05 (unit not given)
# [16] = Con: doxorubicin 0.075 (unit not given)
# [17] = Con: doxorubicin 0.1 (unit not given)
# [18] = Con: doxorubicin 0.25 (unit not given)
# [19] = Con: doxorubicin 0.5 (unit not given)
# [20] = Con: doxorubicin 0.75 (unit not given)
# [21] = Con: doxorubicin 1 (unit not given)
# [22] = Con: doxorubicin 2.5 (unit not given)
# [23] = Con: doxorubicin 5 (unit not given)
compound,measurement,setting,value
"COc1cc([C@@H]2c3cc4c(cc3[C@@H](O[C@@H]3O[C@@H]5CO[C@@H](C)O[C@H]5[C@H](O)[C@H]3O)[C@H]3COC(=O)[C@H]23)OCO4)cc(OC)c1O [Etoposide, etoposide, reference compound]",% survival,pEBS7 (ATM-null) cells; [2],84.6%
same,Avg (absorbance at 564 nm),pEBS7 (ATM-null) cells; [2],1.38
same,% survival,pEBS7 (ATM-null) cells; [3],84.9%
same,Avg (absorbance at 564 nm),pEBS7 (ATM-null) cells; [3],1.38
same,% survival,pEBS7 (ATM-null) cells; [4],89.0%
same,Avg (absorbance at 564 nm),pEBS7 (ATM-null) cells; [4],1.45
same,% survival,pEBS7 (ATM-null) cells; [5],90.8%
same,Avg (absorbance at 564 nm),pEBS7 (ATM-null) cells; [5],1.48
same,% survival,pEBS7 (ATM-null) cells; [6],80.6%
same,Avg (absorbance at 564 nm),pEBS7 (ATM-null) cells; [6],1.31
same,% survival,pEBS7 (ATM-null) cells; [7],66.8%
same,Avg (absorbance at 564 nm),pEBS7 (ATM-null) cells; [7],1.09
same,% survival,pEBS7 (ATM-null) cells; [8],53.0%
same,Avg (absorbance at 564 nm),pEBS7 (ATM-null) cells; [8],0.86
same,% survival,pEBS7 (ATM-null) cells; [9],15.8%
same,Avg (absorbance at 564 nm),pEBS7 (ATM-null) cells; [9],0.26
same,% survival,pEBS7 (ATM-null) cells; [10],2.5%
same,Avg (absorbance at 564 nm),pEBS7 (ATM-null) cells; [10],0.04
same,% survival,pEBS7 (ATM-null) cells; [11],1.2%
same,Avg (absorbance at 564 nm),pEBS7 (ATM-null) cells; [11],0.02
same,% survival,pEBS7 (ATM-null) cells; [12],−1.6%
same,Avg (absorbance at 564 nm),pEBS7 (ATM-null) cells; [12],−0.03
same,PF50 (potentiation factor at 50% cell kill),pEBS7 (ATM-null) cells,6.5
same,% survival,[1]; [2],103.9%
same,Avg (absorbance at 564 nm),[1]; [2],1.74
same,% survival,[1]; [3],93.1%
same,Avg (absorbance at 564 nm),[1]; [3],1.56
same,% survival,[1]; [4],94.1%
same,Avg (absorbance at 564 nm),[1]; [4],1.58
same,% survival,[1]; [5],96.6%
same,Avg (absorbance at 564 nm),[1]; [5],1.62
same,% survival,[1]; [6],104.2%
same,Avg (absorbance at 564 nm),[1]; [6],1.75
same,% survival,[1]; [7],95.8%
same,Avg (absorbance at 564 nm),[1]; [7],1.60
same,% survival,[1]; [8],95.0%
same,Avg (absorbance at 564 nm),[1]; [8],1.59
same,% survival,[1]; [9],75.1%
same,Avg (absorbance at 564 nm),[1]; [9],1.26
same,% survival,[1]; [10],32.4%
same,Avg (absorbance at 564 nm),[1]; [10],0.54
same,% survival,[1]; [11],39.0%
same,Avg (absorbance at 564 nm),[1]; [11],0.65
same,% survival,[1]; [12],21.7%
same,Avg (absorbance at 564 nm),[1]; [12],0.36
same,PF50 (potentiation factor at 50% cell kill),[1],1.7
"COc1cccc2c1C(=O)c1c(O)c3c(c(O)c1C2=O)C[C@@](O)(C(=O)CO)C[C@@H]3O[C@H]1C[C@H](N)[C@H](O)[C@H](C)O1 [Doxorubicin, doxorubicin, reference compound]",% survival,pEBS7 (ATM-null) cells; [13],111.8%
same,Avg (absorbance at 564 nm),pEBS7 (ATM-null) cells; [13],1.46
same,% survival,pEBS7 (ATM-null) cells; [14],117.0%
same,Avg (absorbance at 564 nm),pEBS7 (ATM-null) cells; [14],1.53
same,% survival,pEBS7 (ATM-null) cells; [15],106.4%
same,Avg (absorbance at 564 nm),pEBS7 (ATM-null) cells; [15],1.39
same,% survival,pEBS7 (ATM-null) cells; [16],113.1%
same,Avg (absorbance at 564 nm),pEBS7 (ATM-null) cells; [16],1.47
same,% survival,pEBS7 (ATM-null) cells; [17],111.2%
same,Avg (absorbance at 564 nm),pEBS7 (ATM-null) cells; [17],1.45
same,% survival,pEBS7 (ATM-null) cells; [18],63.8%
same,Avg (absorbance at 564 nm),pEBS7 (ATM-null) cells; [18],0.83
same,% survival,pEBS7 (ATM-null) cells; [19],37.3%
same,Avg (absorbance at 564 nm),pEBS7 (ATM-null) cells; [19],0.49
same,% survival,pEBS7 (ATM-null) cells; [20],12.6%
same,Avg (absorbance at 564 nm),pEBS7 (ATM-null) cells; [20],0.16
same,% survival,pEBS7 (ATM-null) cells; [21],−0.9%
same,Avg (absorbance at 564 nm),pEBS7 (ATM-null) cells; [21],−0.01
same,% survival,pEBS7 (ATM-null) cells; [22],−2.6%
same,Avg (absorbance at 564 nm),pEBS7 (ATM-null) cells; [22],−0.03
same,% survival,pEBS7 (ATM-null) cells; [23],−3.6%
same,Avg (absorbance at 564 nm),pEBS7 (ATM-null) cells; [23],−0.05
same,PF50 (potentiation factor at 50% cell kill),pEBS7 (ATM-null) cells,2.3
same,% survival,[1]; [13],88.3%
same,Avg (absorbance at 564 nm),[1]; [13],1.43
same,% survival,[1]; [14],89.4%
same,Avg (absorbance at 564 nm),[1]; [14],1.45
same,% survival,[1]; [15],87.3%
same,Avg (absorbance at 564 nm),[1]; [15],1.42
same,% survival,[1]; [16],94.1%
same,Avg (absorbance at 564 nm),[1]; [16],1.53
same,% survival,[1]; [17],103.9%
same,Avg (absorbance at 564 nm),[1]; [17],1.69
same,% survival,[1]; [18],95.3%
same,Avg (absorbance at 564 nm),[1]; [18],1.55
same,% survival,[1]; [19],53.4%
same,Avg (absorbance at 564 nm),[1]; [19],0.87
same,% survival,[1]; [20],33.2%
same,Avg (absorbance at 564 nm),[1]; [20],0.54
same,% survival,[1]; [21],8.8%
same,Avg (absorbance at 564 nm),[1]; [21],0.14
same,% survival,[1]; [22],−1.7%
same,Avg (absorbance at 564 nm),[1]; [22],−0.03
same,% survival,[1]; [23],−2.6%
same,Avg (absorbance at 564 nm),[1]; [23],−0.04
same,PF50 (potentiation factor at 50% cell kill),[1],1.5
